Reference: ChEMBL document CHEMBL1201862, “PubChem BioAssay data set” (2004)
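Exposure lasted 48 hours, with cells grown in 96-well plates and compounds tested at five concentrations. GI50: concentration for 50% inhibition of growth.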 Activity calls are given as the source filed them. No stated cut-off is given here; in the data, active = GI50 up to about 1.1 µM and inactive = higher.

Assays:
Assay in all cases: NCI tumour cell line growth inhibition, 48 h
[1] = test system: A498
[2] = test system: CAKI-1
[3] = test system: CCRF-CEM
[4] = test system: HOP-62
[5] = test system: IGROV-1
[6] = test system: KM-20L2
[7] = test system: KM12
[8] = test system: M14
[9] = test system: OVCAR-3
[10] = test system: SF-295
[11] = test system: SK-MEL-2
[12] = test system: SK-OV-3
[13] = test system: SNB-78
[14] = test system: TK-10
[15] = test system: SF-268
[16] = test system: SNB-19
[17] = test system: SN12C

Row | Compound | GI50 [1] | GI50 [2] | GI50 [3] | GI50 [4] | GI50 [5] | GI50 [6] | GI50 [7] | GI50 [8] | GI50 [9] | GI50 [10] | GI50 [11] | GI50 [12] | GI50 [13] | GI50 [14] | GI50 [15] | GI50 [16] | GI50 [17]
1 | Cc1ccc(S(=O)(=O)Nc2ccccc2C(C)(C)C)cc1 | 24 µM (inactive) | 18.7 µM (inactive) | 21.4 µM (inactive) | 20 µM (inactive) | 30.7 µM (inactive) | 19 µM (inactive) | 17.2 µM (inactive) | > 10 µM (inactive) | 17.2 µM (inactive) | 13.7 µM (inactive) | 26.7 µM (inactive) | 30.5 µM (inactive) | 31.6 µM (inactive) | 37.1 µM (inactive) |  |  | 
2 | O=C1OC(c2ccccc2)=N/C1=C/NC(CO)C(=O)O (stereo not drawn) | > 100 µM (inactive) | > 100 µM (inactive) | > 100 µM (inactive) | > 100 µM (inactive) | 67.1 µM (inactive) | > 100 µM (inactive) | > 100 µM (inactive) | > 100 µM (inactive) | > 100 µM (inactive) | > 100 µM (inactive) | > 100 µM (inactive) | > 100 µM (inactive) | > 100 µM (inactive) | > 100 µM (inactive) | > 100 µM (inactive) | 48.9 µM (inactive) | 
3 | COc1ccc(C[C@H](N)C(=O)NC2C(CO)OC(n3cnc4c(N(C)C)ncnc43)C2O)cc1 (stereo partly drawn) | 1.04 µM (active) |  | 0.145 µM (active) | 0.427 µM (active) | 0.451 µM (active) | 0.513 µM (active) | 0.262 µM (active) | 0.378 µM (active) | 0.273 µM (active) | 0.34 µM (active) | 0.415 µM (active) | 0.395 µM (active) | 0.213 µM (active) | 0.67 µM (active) | 0.354 µM (active) |  | 0.178 µM (active)
4 | Oc1ccc([Te]CCNCC[Te]c2ccc(O)cc2)cc1 | 13.4 µM (inactive) | 30.5 µM (inactive) | 2.97 µM (inactive) | 18.2 µM (inactive) | 27.9 µM (inactive) | 14.4 µM (inactive) | 15 µM (inactive) | 17.6 µM (inactive) |  | 4.32 µM (inactive) |  | 25 µM (inactive) | 22 µM (inactive) | 30.3 µM (inactive) | 11.1 µM (inactive) | 40.9 µM (inactive) | 9.82 µM (inactive)
5 | COc1cc2ccnc3c2c(c1OC)-c1coc(SC)c1-3 | 19.5 µM (inactive) | 20.8 µM (inactive) | > 10 µM (inactive) | 54.8 µM (inactive) | > 100 µM (inactive) | > 100 µM (inactive) | > 100 µM (inactive) | > 100 µM (inactive) |  | 13.4 µM (inactive) | > 100 µM (inactive) | > 100 µM (inactive) | > 100 µM (inactive) | > 100 µM (inactive) | 92 µM (inactive) | > 100 µM (inactive) | > 100 µM (inactive)
6 | O=C1c2ccccc2C(=O)c2c(O)c(NCCNCCO)cc(O)c21 | 7.26 µM (inactive) | 2.08 µM (inactive) | 3.05 µM (inactive) | 3.93 µM (inactive) | 1.91 µM (inactive) | 4.12 µM (inactive) | 3.72 µM (inactive) | 4.42 µM (inactive) | 4.39 µM (inactive) | 10.2 µM (inactive) | 5.07 µM (inactive) |  | 5.21 µM (inactive) | 5 µM (inactive) | 4.29 µM (inactive) | 1.75 µM (inactive) | 3.99 µM (inactive)
7 | COc1ccc2[nH]c3c(c2c1)CCN(C)CC3 | > 100 µM (inactive) | > 100 µM (inactive) | > 100 µM (inactive) | > 100 µM (inactive) | > 100 µM (inactive) | > 100 µM (inactive) | > 100 µM (inactive) | > 100 µM (inactive) | > 100 µM (inactive) | > 100 µM (inactive) | > 100 µM (inactive) | > 100 µM (inactive) | > 100 µM (inactive) | > 100 µM (inactive) | > 100 µM (inactive) | > 100 µM (inactive) | 
